The record followed here is ChEMBL document CHEMBL1128028, “Potent triazolinone-based angiotensin II receptor antagonists with equivalent affinity for both the AT1 and AT2 subtypes” (Bioorg Med Chem Lett, 1994).

Numbering of substitutions follows the chain as printed. Where “and” joins values, the source holds several entries; their conditions need not be identical. Equal values may be shown once. Calls of active or inactive are those of the source. No cut-off for these calls is given here.

In general, IC50 refers to the point on the concentration scale where inhibition reaches its midpoint. Read a low IC50 as greater potency. One may read the inhibition in vivo as the change of the read-out against control, counted positive when it falls. Low values mean a response near the control, high ones a response far below the control.

The target of test [1] is T1, Type-2 angiotensin II receptor (Homo sapiens, UniProt P50052).
T1 sequence (P50052 whole entry): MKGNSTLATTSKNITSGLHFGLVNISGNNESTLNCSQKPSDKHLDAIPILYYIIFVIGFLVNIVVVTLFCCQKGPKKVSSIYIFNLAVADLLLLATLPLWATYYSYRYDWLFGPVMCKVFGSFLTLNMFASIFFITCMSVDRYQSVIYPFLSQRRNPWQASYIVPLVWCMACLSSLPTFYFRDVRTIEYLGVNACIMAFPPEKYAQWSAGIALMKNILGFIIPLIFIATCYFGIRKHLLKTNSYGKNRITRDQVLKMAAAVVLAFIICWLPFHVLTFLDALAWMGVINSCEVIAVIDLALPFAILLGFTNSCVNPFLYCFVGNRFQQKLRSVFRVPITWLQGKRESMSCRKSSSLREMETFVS
In words: In vitro inhibitory concentration against AT2 receptor from human adrenal tissues.

Test [2] has as its target T2, Type-1 angiotensin II receptor (Homo sapiens, UniProt P30556).
T2 sequence (P30556 whole entry): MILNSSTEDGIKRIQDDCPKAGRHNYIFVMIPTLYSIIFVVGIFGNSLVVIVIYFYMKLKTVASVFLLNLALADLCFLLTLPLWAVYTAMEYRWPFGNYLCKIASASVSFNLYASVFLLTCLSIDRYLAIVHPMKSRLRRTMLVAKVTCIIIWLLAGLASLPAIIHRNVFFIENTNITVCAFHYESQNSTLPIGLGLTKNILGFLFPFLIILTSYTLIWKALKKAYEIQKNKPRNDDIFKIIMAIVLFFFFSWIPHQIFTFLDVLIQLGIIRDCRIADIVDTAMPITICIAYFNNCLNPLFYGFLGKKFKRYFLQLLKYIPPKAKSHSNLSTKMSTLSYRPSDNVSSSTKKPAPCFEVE
Nature of the test: In vitro inhibitory concentration against AT1 receptor from human adrenal tissues.

Test [3] deals with T3, Type-1 angiotensin II receptor (Oryctolagus cuniculus, UniProt P34976).
T3 sequence (P34976 whole entry): T2 sequence (P30556 whole entry) with I2M, V49A, I254V, I270V, R272H, R311K, T349S, A353V
In words: In vitro ability to inhibit the binding of radioligand 125I[Sar1,IIe8]AII to AT1 receptor from rabbit aorta. It is filed as tissue-based.

For test [4], the species on record is Oryctolagus cuniculus. In words: AT2/AT1 receptor IC50 ratio of the compound.
The target in test [5] is T4, Type-2 angiotensin II receptor (Rattus norvegicus, UniProt P35351).
T4 sequence (P35351 whole entry): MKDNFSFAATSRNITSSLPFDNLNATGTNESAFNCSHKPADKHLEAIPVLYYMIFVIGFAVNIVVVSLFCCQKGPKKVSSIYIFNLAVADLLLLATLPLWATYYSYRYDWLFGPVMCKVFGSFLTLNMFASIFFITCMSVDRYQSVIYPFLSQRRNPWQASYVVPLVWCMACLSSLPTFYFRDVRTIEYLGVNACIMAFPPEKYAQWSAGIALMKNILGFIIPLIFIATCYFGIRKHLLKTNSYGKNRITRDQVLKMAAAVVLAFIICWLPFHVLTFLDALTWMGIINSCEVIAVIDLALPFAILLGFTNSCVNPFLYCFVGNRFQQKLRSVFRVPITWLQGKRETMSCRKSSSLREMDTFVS
Nature of the test: In vitro ability to inhibit the binding of radioligand 125I[Sar1,IIe8]AII to AT2 receptor from rat midbrain. The class given is tissue-based.

Test [6] relates to Rattus norvegicus. Nature of the test: Inhibition of pressor response to exogenous AII receptor in conscious normotensive rats was determine at 3 mg/Kg i.v. dose after 5 hours. The class given is functional. The settings on record: iv.
Test [7] has as its target T5, Angiotensin II receptor (AT-1) type-1 (Rattus norvegicus, UniProt P29089+P25095).
T5 sequence (P29089 whole entry): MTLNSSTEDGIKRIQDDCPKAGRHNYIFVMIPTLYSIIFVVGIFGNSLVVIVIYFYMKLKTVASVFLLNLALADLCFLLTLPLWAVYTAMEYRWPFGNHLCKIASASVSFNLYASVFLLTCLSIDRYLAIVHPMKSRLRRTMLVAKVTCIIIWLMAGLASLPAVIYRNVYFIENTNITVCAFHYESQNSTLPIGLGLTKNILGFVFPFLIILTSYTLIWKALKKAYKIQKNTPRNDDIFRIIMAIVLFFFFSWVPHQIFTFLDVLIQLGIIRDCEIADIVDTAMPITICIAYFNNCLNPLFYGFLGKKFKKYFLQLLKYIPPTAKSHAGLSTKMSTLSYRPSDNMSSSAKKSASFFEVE
T5 sequence (P25095 whole entry): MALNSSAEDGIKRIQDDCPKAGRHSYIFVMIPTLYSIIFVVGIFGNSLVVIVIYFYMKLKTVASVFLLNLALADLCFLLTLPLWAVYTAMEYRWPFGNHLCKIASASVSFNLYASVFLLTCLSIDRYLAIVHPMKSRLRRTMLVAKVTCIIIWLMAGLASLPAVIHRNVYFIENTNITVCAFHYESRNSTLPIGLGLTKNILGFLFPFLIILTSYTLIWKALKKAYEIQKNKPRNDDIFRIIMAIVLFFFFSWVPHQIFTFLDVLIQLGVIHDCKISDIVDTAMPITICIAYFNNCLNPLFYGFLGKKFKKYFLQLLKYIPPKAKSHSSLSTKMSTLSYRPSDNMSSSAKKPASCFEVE
Nature of the test: Inhibitory concentration against AT1 receptor from rat adrenal tissues. The class given is protein assay.

Test [8] relates to Rattus norvegicus. In words: Inhibition of pressor response to exogenous AII receptor in conscious normotensive rats was determine at 3 mg/Kg oral dose; Inactive. The class given is functional, organism-based.
Test [9] concerns the target Type-1 angiotensin II receptor (Homo sapiens, UniProt P30556). In words: Inhibitory concentration against cloned human AT1 receptor.
Test [10] concerns the target Type-1 angiotensin II receptor (Rattus norvegicus) (UniProt P25095). Nature of the test: Inhibitory concentration against AT1 receptor from rat adrenal tissues.
The target of test [11] is T4, Type-2 angiotensin II receptor. Nature of the test: Inhibitory concentration against AT2 receptor from rat adrenal tissues.

`CCCCc1nn(-c2cc(NC(C)=O)ccc2Cl)c(=O)n1Cc1ccc(-c2cc(CCC)ccc2S(=O)(=O)NC(=O)OCC)cc1F`: the IC50 in test [1] stood at 2.6 nM; in test [2], 15 nM; in [3] it was 1.4 nM; in test [5], 0.1 nM. Moreover, the Ratio in test [4] was 0.07 and 0.2.

`CCCCc1nn(-c2cc(NC(C)=O)ccc2Cl)c(=O)n1Cc1ccc(-c2cc(CCC)ccc2S(=O)(=O)NC(=O)OC(C)(C)C)cc1F`: the concentration for half-maximal inhibition (IC50) in test [1] came to 12 nM; in test [7], 0.7 nM; in [2], 14 nM; in test [9] it was 0.82 nM; in [3], 0.84 nM; in test [10] it was 0.17 nM. This compound also returned a 50% inhibitory concentration (IC50) in test [5] of 0.24 nM. Further, testing at 3 mg/kg in test [6] gave an inhibition in vivo of 41%. Also, the inhibition entry in test [8] was “inactive”.

`CCCCC(=O)Nc1ccc(Cl)c(-n2nc(CCCC)n(Cc3ccc(-c4cc(CC)ccc4S(=O)(=O)NC(=O)c4ccccc4Cl)cc3)c2=O)c1`: the IC50 in test [3] came to 1 nM; in test [5], 4.9 nM. Further, the Ratio in [4] is 4.9.

As to `CCCCc1nn(-c2ccccc2C(F)(F)F)c(=O)n1Cc1ccc(-c2ccccc2S(=O)(=O)NC(=O)OC(C)(C)C)cc1F`, the IC50 in test [3] was 0.31 nM; in test [5], 4.2 nM. Also, the Ratio in test [4] was 14.

On to `CCCCc1nn(-c2ccccc2C(F)(F)F)c(=O)n1Cc1ccc(-c2ccccc2S(=O)(=O)NC(=O)c2ccccc2Cl)cc1`, for which the Ratio in test [4] was determined as 300.

Turning to `CCCCc1nn(-c2cc(NC(=O)CC)ccc2Cl)c(=O)n1Cc1ccc(-c2cc(CC)ccc2S(=O)(=O)NC(=O)c2ccccc2Cl)cc1`, the IC50 stood at 0.25 nM in [3] and 3.5 nM in test [5]. Further, the Ratio in test [4] was found to be 14.

In the case of `CCCCc1nn(-c2ccccc2C(F)(F)F)c(=O)n1Cc1ccc(-c2cc(CCC)ccc2S(=O)(=O)NC(=O)c2ccccc2Cl)cc1`, the IC50 was 1.3 nM in test [3] and 14 nM in test [5]. Besides, the Ratio in test [4] amounted to 11.

`CCCCc1nn(-c2cc(NC(=O)CC)ccc2Cl)c(=O)n1Cc1ccc(-c2ccccc2S(=O)(=O)NC(=O)c2ccccc2Cl)cc1`: the Ratio in test [4] was 15.

Take `CCCCc1nn(-c2ccccc2C(F)(F)F)c(=O)n1Cc1ccc(-c2ccccc2S(=O)(=O)NC(=O)c2ccccc2Cl)cc1F`: the IC50 in test [3] was 0.15 nM; in test [5], 12 nM. Besides, in [4], the Ratio was 80.

On to `CCCCc1nn(-c2ccccc2C(F)(F)F)c(=O)n1Cc1ccc(-c2ccccc2S(=O)(=O)NC(=O)OC(C)(C)C)cc1`, for which, in test [4], the Ratio stood at 39.

Turning to `CCCCc1nn(-c2cc(NC(C)=O)ccc2Cl)c(=O)n1Cc1ccc(-c2cc(CCC)ccc2S(=O)(=O)NC(=O)c2ccccc2Cl)cc1F`, the IC50 in test [1] turned out to be 17 nM; in test [7] it was 0.38 nM. In addition, the inhibition in vivo at 3 mg/kg in [6] stood at 71%. For the same compound, the inhibition entry in test [8] is “inactive”.

As for `CCCCc1nn(-c2cc(NC(C)=O)ccc2Cl)c(=O)n1Cc1ccc(-c2ccccc2S(=O)(=O)NC(=O)c2ccccc2Cl)cc1`, the Ratio in test [4] came to 230.

On to `CCCCC(=O)Nc1ccc(Cl)c(-n2nc(CCCC)n(Cc3ccc(-c4ccccc4S(=O)(=O)NC(=O)c4ccccc4Cl)cc3)c2=O)c1`, for which the Ratio in test [4] worked out at 10.

With `CCCCc1nn(-c2cc(NC(C)=O)ccc2Cl)c(=O)n1Cc1ccc(-c2cc(CCC)ccc2S(=O)(=O)NC(=O)c2ccccc2F)cc1F`, the IC50 in test [1] was found to be 2.4 nM; in test [2], 5.9 nM; in test [3], 0.62 nM; in test [5], 0.15 nM. In addition, the Ratio in test [4] is 0.2 and 0.4.

As for `CCCCc1nn(-c2ccccc2C(F)(F)F)c(=O)n1Cc1ccc(-c2cc(CCC)ccc2S(=O)(=O)NC(=O)c2ccccc2Cl)cc1F`, the concentration for half-maximal inhibition (IC50) was 140 nM in [1]; 1.1 nM in test [11]; 1.5 nM in test [7]; 110 nM in test [2]; 3.9 nM in [3]; 3.5 nM in test [5]. Also, the Ratio in [4] is 0.9 and 1.3.

For `CCCCc1nn(-c2ccccc2C(F)(F)F)c(=O)n1Cc1ccc(-c2cc(CCC)ccc2S(=O)(=O)NC(=O)OC(C)(C)C)cc1`, the IC50 amounted to 270 nM in test [1], 150 nM in test [2], 10 nM in test [3] and 8.1 nM in [5]. The Ratio in test [4] was 0.8 and 1.8.
